Patent US20250195513A1, “DEGRADATION OF IRAK4 BY CONJUGATION OF IRAK4 INHIBITORS WITH E3 LIGASE LIGAND AND METHODS OF USE” (BeiGene, Ltd., priority 2022, published 2025)

What was measured:
Format in all cases: cell-based
[1] = target: T1, IRAK4 (Homo sapiens, UniProt Q9NWZ3); experiment: IRAK4 Degradation Assay with Human Serum (Karpas299, HTRF/TR-FRET); conditions: Karpas-299 in human serum, 24 hrs treatment; for DC50: read-out: IRAK4 degradtion with human serum assay DC50; for Dmax: read-out: IRAK4 degradtion with human serum assay Dmax (%)
T1 construct: endogenous in cells; host or cells: Karpas299
T1 sequence (Q9NWZ3 1-460): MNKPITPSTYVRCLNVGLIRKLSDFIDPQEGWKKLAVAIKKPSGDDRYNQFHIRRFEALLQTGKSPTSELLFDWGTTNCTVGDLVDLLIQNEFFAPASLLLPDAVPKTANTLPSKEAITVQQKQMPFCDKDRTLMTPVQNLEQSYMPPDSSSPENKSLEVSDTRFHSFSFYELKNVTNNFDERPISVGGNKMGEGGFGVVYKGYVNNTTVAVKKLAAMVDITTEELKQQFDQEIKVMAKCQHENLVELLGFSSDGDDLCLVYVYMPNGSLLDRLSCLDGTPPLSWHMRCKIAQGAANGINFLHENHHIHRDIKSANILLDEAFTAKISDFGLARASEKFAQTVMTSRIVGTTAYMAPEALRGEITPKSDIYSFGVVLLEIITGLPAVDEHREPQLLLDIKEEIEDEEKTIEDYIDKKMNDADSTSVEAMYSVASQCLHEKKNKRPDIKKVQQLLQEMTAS
Outline: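 Remaining IRAK4 measured by TR-FRET immunoassay on lysates of Karpas299 cells exposed 24 h to compound dilution series in human serum AB. DC50 derived from a Hill-slope fit of % degradation versus concentration.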

[2] = target: T1, IRAK4; experiment: IRAK4 Degradation Assay (Karpas299, HTRF/TR-FRET); conditions: Karpas-299 cells; for Dmax: maximum percentage of degradation
Outline: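 Compound potency as DC50 (IC50) came from four-parameter fits of percent IRAK4 degradation. IRAK4 was measured by HTRF (665/620 nm) in lysates of Karpas299 cells seeded at 0.2 million per well. Cells had been treated with compound dilutions for 5 or 24 h.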

[3] = tested on: IL-6 production in human PBMC; experiment: IL-6 Production Assay in Human PBMC (LPS stimulated); conditions: Homo sapiens, 5 h; for Emax: maximum inhibition, read-out: IL-6 (PBMC) 5 h IMax
Outline: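 Thawed PBMC were rested overnight at 37 °C, seeded at 0.2 million cells/well and pretreated with compounds for 24 h. They were then stimulated with LPS at 10 ng/mL for 5 h. IL-6 in the supernatant was quantified by TR-FRET.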

[4] = tested on: TNF-α production in THP-1 cells; experiment: TNF-α Production Assay in THP-1 Cells (LPS stimulated); conditions: Homo sapiens, THP-1, 24 h; for Emax: maximum inhibition, read-out: TNF-α (THP-1) 24 h IMax
Outline: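 Cells (0.2 million/well) pretreated with compounds for 24 h, then stimulated with LPS at 1 μg/mL final for 24 h. TNF-α in culture supernatant quantified by TR-FRET immunoassay.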

[5] = 5 h treatment, read-out: IRAK4 in Karpas-299 (5 h) Dmax (%)
[6] = 5 h treatment, read-out: IRAK4 in Karpas-299 (5 h) DC50
[7] = 24 h treatment, read-out: IRAK4 in Karpas-299 (24 h) Dmax (%)
[8] = 24 h treatment, read-out: IRAK4 in Karpas-299 (24 h) DC50

Compound	DC50 [1] [nM]	Dmax [1] [%]	Dmax [2, 5] [%]	DC50 [2, 6] [nM]	Dmax [2, 7] [%]	DC50 [2, 8] [nM]	IC50 [4] [nM]	IC50 [3] [nM]	Emax [3] [%]	Emax [4] [%]
CC(C)(O)c1cc2nn([C@H]3CC[C@H](N4CCN(C(=O)C5CN(c6cc(F)c([C@H]7CCC(=O)NC7=O)c(F)c6)C5)CC4)CC3)cc2cc1NC(=O)c1ccc2cc(C#N)cnn12 [Example 178, 3-cyano-N-(2-((1r,4r)-4-(4-(1-(4-((R)-2,6-dioxopiperidin-3-yl)-3,5-difluorophenyl)azetidine-3-carbonyl)piperazin-1-yl)cyclohexyl)-6-(2-hydroxypropan-2-yl)-2H-indazol-5-yl)pyrrolo[1,2-b]pyridazine-7-carboxamide]	17	100	97	0.6	98	0.4	6.4	1.2	61	92
COC[C@H]1CN([C@H]2CC[C@H](n3cc4cc(NC(=O)c5ccc6cc(C#N)cnn56)c(C(C)(C)O)cc4n3)CC2)CCN1C1CCN(c2cc(F)c([C@H]3CCC(=O)NC3=O)c(F)c2)CC1 [Example 317, 3-cyano-N-(2-((1R,4r)-4-((R)-4-(1-(4-((R)-2,6-dioxopiperidin-3-yl)-3,5-difluorophenyl)piperidin-4-yl)-3-(methoxymethyl)piperazin-1-yl)cyclohexyl)-6-(2-hydroxypropan-2-yl)-2H-indazol-5-yl)pyrrolo[1,2-b]pyridazine-7-carboxamide]	25	100	95	1.9	96	0.8	41	1	71	87
C[C@@H]1CN(CCc2cc(F)c([C@H]3CCC(=O)NC3=O)c(F)c2)CCN1[C@H]1CC[C@H](n2cc3cc(NC(=O)c4ccc5cc(C#N)cnn45)c(C(C)(C)O)cc3n2)CC1 [Example 299, 3-cyano-N-(2-((1R,4r)-4-((R)-4-(4-((R)-2,6-dioxopiperidin-3-yl)-3,5-difluorophenethyl)-2-methylpiperazin-1-yl)cyclohexyl)-6-(2-hydroxypropan-2-yl)-2H-indazol-5-yl)pyrrolo[1,2-b]pyridazine-7-carboxamide]	4.8	99			98	0.8	43	4	74	94
CC(C)(O)c1cc2nn([C@H]3CC[C@H](N4CCN(C5CN(c6cc(F)c([C@H]7CCC(=O)NC7=O)c(F)c6)C5)CC4)CC3)cc2cc1NC(=O)c1ccc2cc(C#N)cnn12 [Example 110, 3-cyano-N-(2-((1R,4r)-4-(4-(1-(4-((R)-2,6-dioxopiperidin-3-yl)-3,5-difluorophenyl)azetidin-3-yl)piperazin-1-yl)cyclohexyl)-6-(2-hydroxypropan-2-yl)-2H-indazol-5-yl)pyrrolo[1,2-b]pyridazine-7-carboxamide]	8.3	100	94	1.1	98	0.8	27	1.5	63	83

More lines, main results first:

DC50 [1] [nM]	Dmax [1] [%]	Dmax [2, 5] [%]	DC50 [2, 6] [nM]	Dmax [2, 7] [%]	DC50 [2, 8] [nM]	IC50 [4] [nM]	Compound	IC50 [3] [nM]	Emax [3] [%]	Emax [4] [%]
4.6	99	96	0.8	96	1.3	14	CC(C)(O)c1cc2nn([C@H]3CC[C@H](N4CCN([C@H]5C[C@H](c6cc(F)c([C@H]7CCC(=O)NC7=O)c(F)c6)C5)CC4)CC3)cc2cc1NC(=O)c1ccc2cc(C#N)cnn12 [Example 364, 3-cyano-N-(2-((1R,4r)-4-(4-((1R,3R)-3-(4-((R)-2,6-dioxopiperidin-3-yl)-3,5-difluorophenyl)cyclobutyl)piperazin-1-yl)cyclohexyl)-6-(2-hydroxypropan-2-yl)-2H-indazol-5-yl)pyrrolo[1,2-b]pyridazine-7-carboxamide]	0.6	74	98
23	93	98	3.9	97	2.4	10	CC(C)(O)c1cc2nn(C34CCC(N5CCN(C6CCN(c7cc(F)c([C@H]8CCC(=O)NC8=O)c(F)c7)CC6)CC5)(CC3)CC4)cc2cc1NC(=O)c1ccc2cc(C#N)cnn12 [Example 333, (R)-3-cyano-N-(2-(4-(4-(1-(4-(2,6-dioxopiperidin-3-yl)-3,5-difluorophenyl)piperidin-4-yl)piperazin-1-yl)bicyclo[2.2.2]octan-1-yl)-6-(2-hydroxypropan-2-yl)-2H-indazol-5-yl)pyrrolo[1,2-b]pyridazine-7-carboxamide]	4.7	62	96
2.9	95	97	1.9	100	0.7	13	COC[C@@H]1CN(CC2CN(c3cc(F)c([C@H]4CCC(=O)NC4=O)c(F)c3)C2)CCN1[C@H]1CC[C@H](n2cc3cc(NC(=O)c4ccc5cc(C#N)cnn45)c(C(C)(C)O)cc3n2)CC1 [Example 326, 3-cyano-N-(2-((1S,4r)-4-((S)-4-((1-(4-((R)-2,6-dioxopiperidin-3-yl)-3,5-difluorophenyl)azetidin-3-yl)methyl)-2-(methoxymethyl)piperazin-1-yl)cyclohexyl)-6-(2-hydroxypropan-2-yl)-2H-indazol-5-yl)pyrrolo[1,2-b]pyridazine-7-carboxamide]	1.9	65	99
